From patent US20260098030A1, “NEGATIVE ALLOSTERIC MODULATORS OF METABOTROPIC GLUTAMATE RECEPTOR 2” (Vanderbilt University, priority 2022, published 2026)

Assays:
[1] = test system: Dutch APP transgenic mice; settings: cited from earlier work
human mGlu2 = biological target: T1, human mGlu2 (Homo sapiens, UniProt Q14416); assay: mGlu GIRK cell-based thallium flux assay, human mGlu2; settings: HEK-293 cells co-expressing human mGlu2 and GIRK, EC80 glutamate
T1 construct: expressed in transfected cells; host or cells: HEK-293 cells stably co-expressing GIRK channels
T1 sequence (Q14416 19-872): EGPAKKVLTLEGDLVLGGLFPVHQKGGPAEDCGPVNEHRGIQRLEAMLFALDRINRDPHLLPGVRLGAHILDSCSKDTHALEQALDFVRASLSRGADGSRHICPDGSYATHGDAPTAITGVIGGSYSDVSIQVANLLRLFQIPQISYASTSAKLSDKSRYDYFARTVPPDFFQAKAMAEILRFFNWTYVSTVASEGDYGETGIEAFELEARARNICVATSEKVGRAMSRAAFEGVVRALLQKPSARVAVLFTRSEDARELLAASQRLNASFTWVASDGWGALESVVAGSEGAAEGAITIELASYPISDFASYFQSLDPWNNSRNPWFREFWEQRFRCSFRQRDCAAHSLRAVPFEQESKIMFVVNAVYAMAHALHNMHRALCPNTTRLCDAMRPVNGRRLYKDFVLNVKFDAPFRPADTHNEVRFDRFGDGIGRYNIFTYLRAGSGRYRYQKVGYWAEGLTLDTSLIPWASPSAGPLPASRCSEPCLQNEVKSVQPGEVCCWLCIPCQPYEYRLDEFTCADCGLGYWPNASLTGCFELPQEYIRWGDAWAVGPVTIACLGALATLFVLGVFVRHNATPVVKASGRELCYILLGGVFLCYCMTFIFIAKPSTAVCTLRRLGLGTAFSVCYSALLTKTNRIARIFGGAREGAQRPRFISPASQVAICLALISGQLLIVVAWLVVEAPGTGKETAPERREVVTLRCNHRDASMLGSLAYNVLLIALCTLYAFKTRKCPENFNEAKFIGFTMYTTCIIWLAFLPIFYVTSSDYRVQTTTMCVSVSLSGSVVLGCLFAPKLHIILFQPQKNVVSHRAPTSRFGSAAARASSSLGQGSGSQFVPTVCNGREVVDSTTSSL
In short: (§1)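 HEK-293 cells stably co-expressing GIRK with human mGlu3, human mGlu2 or rat mGlu2 were loaded 1 h at 25° C with Thallos dye, then given compound (30 μM to 1.5 nM final, 10-point) for 2 min 20 s before EC80 glutamate plus thallium. Baseline-corrected fluorescence slope, normalized to ECmax glutamate, fitted to 4-parameter logistic for IC50.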

rat mGlu2 = biological target: T2, rat mGlu2 (Rattus norvegicus, UniProt P31421); assay: mGlu GIRK cell-based thallium flux assay, rat mGlu2; settings: HEK-293 cells co-expressing rat mGlu2 and GIRK, EC80 glutamate
T2 construct: expressed in transfected cells; host or cells: HEK-293 cells stably co-expressing GIRK channels
T2 sequence (P31421 19-872): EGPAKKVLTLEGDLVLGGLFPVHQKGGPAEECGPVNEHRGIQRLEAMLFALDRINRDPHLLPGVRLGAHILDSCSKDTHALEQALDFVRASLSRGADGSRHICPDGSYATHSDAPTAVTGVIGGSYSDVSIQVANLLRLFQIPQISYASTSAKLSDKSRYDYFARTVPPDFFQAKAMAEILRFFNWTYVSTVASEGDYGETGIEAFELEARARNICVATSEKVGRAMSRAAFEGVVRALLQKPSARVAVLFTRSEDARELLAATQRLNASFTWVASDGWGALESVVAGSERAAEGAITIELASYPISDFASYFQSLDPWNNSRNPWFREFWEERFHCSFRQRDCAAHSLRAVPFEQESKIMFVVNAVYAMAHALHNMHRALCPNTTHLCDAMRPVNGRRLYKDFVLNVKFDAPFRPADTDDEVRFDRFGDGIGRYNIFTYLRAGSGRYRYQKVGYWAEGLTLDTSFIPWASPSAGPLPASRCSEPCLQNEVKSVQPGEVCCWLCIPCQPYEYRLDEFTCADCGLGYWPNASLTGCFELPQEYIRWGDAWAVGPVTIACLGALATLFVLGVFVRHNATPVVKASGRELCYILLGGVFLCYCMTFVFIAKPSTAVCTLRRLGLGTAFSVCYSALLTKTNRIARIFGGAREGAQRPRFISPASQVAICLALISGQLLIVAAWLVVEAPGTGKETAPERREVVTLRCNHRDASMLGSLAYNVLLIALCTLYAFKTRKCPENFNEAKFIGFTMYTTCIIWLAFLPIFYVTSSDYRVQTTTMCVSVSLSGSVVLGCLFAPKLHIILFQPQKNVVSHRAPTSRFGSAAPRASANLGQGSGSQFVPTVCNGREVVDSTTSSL
In short: as §1

Rat mGlu3 = Rat mGlu3 (UniProt P31422); assay: mGlu GIRK cell-based thallium flux assay, mGlu3; settings: HEK-293 cells co-expressing mGlu3 and GIRK, EC80 glutamate
mouse = settings: normal animals; cited from earlier work
mice = settings: cited from earlier work
Helpless (H) mice = settings: cited from earlier work; for activity in the tail suspension test: Helpless (H) mice; for antidepressant effect in helpless mice: LY341495 acute administration, fluoxetine chronic (21 days) treatment
C57B16/J mice = settings: cited from earlier work
[2] = test system: central mGlu2 and mGlu3 receptors; settings: in vivo; cited from earlier work
mGlu2 = settings: cited from earlier work
rat = settings: normal animals; cited from earlier work
[3] = in vivo; cited from earlier work
[4] = test system: social isolation-reared mice; settings: cited from earlier work
[5] = test system: olfactory bulbectomized rats; settings: repeated administration for 14 days; cited from earlier work
[6] = treatment for 7 days; cited from earlier work

IC50 (rat mGlu2) [nM] | IC50 (Rat mGlu3) [nM] | Structure (SMILES) | also measured
 |  | CCCCCCCOC(=O)[C@@]1(F)[C@@H]2C[C@@H](OCc3ccc(Cl)c(Cl)c3)[C@@](N)(C(=O)O)[C@@H]21 [BCI-838] | duration of inhibition of group II mGlu receptors by brain concentration of active metabolite BCI-632 ([1]; once-daily oral dosing): 22 h; learning and memory impairment ([1]; three months of treatment, Dutch APP transgene): reversed Dutch APP transgene-associated learning and memory impairment; anxiolytic effects ([1]; three months of treatment): provided anxiolytic effects; levels of monomeric and oAβ peptides in the hippocampus and cortex ([1]; three months of treatment, two AD mouse models): decreased the levels of monomeric and oAβ peptides; hippocampal progenitor cell proliferation ([1]; wild-type and Alzheimer's diseased mice, 3 months): stimulated hippocampal progenitor cell proliferation
> 10000 |  | Cn1cc(-c2cc3c(cc2-c2ccc(F)cc2)C(=O)NC3)cn1 [Compound 1, 6-(4-fluorophenyl)-5-(1-methyl-1H-pyrazol-4-yl)isoindolin-1-one] | IC50 (human mGlu2): > 10000 nM
> 10000 |  | O=C1NCc2cc(-c3cnco3)c(-c3ccc(F)cc3)cc21 [Compound 2, 6-(4-fluorophenyl)-5-(oxazol-5-yl)isoindolin-1-one] | IC50 (human mGlu2): 5840 nM
> 10000 |  | O=C1NCc2cc(-c3ccncc3)c(-c3ccc(F)cc3)cc21 [Compound 4, 6-(4-fluorophenyl)-5-(pyridin-4-yl)isoindolin-1-one] | IC50 (human mGlu2): > 10000 nM
839 | 5820 | Cc1ncc(-c2cc3c(cc2-c2ccc(F)cc2)C(=O)NC3)s1 [Compound 5, 6-(4-fluorophenyl)-5-(2-methylthiazol-5-yl)isoindolin-1-one] | 
> 10000 |  | Cn1cc2cc(-c3cc4c(cc3-c3ccc(F)cc3)C(=O)NC4)ccc2n1 [Compound 7, 6-(4-fluorophenyl)-5-(2-methyl-2H-indazol-5-yl)isoindolin-1-one] | IC50 (human mGlu2): 1560 nM
1280 | 1980 | Cc1c(-c2cc3c(cc2-c2ccc(F)cc2)C(=O)NC3)ccc2[nH]ncc12 [Compound 9, 6-(4-fluorophenyl)-5-(4-methyl-1H-indazol-5-yl)isoindolin-1-one] | 
953 | > 10000 | O=C1NCc2cc(-c3ccc4ocnc4c3)c(-c3ccc(F)cc3F)cc21 [Compound 24, 5-(benzo[d]oxazol-5-yl)-6-(2,4-difluorophenyl)isoindolin-1-one] | 
953 | > 10000 | Cc1ccc(-c2cc3c(cc2-c2ccc(F)cc2)C(=O)NC3)nc1 [Compound 52, 6-(4-fluorophenyl)-5-(5-methylpyridin-2-yl)isoindolin-1-one] | 
762 | > 10000 | O=C1NCc2cc(C3CCOCC3)c(-c3ccc(F)cc3)cc21 [Compound 64, 6-(4-fluorophenyl)-5-(tetrahydro-2H-pyran-4-yl)isoindolin-1-one] | 
659 | > 10000 | Cc1ccc(-c2cc3c(cc2-c2ccc(F)cc2F)C(=O)NC3)cn1 [Compound 69, 6-(2,4-difluorophenyl)-5-(6-methylpyridin-3-yl)isoindolin-1-one] | 
 | > 10000 | O=C1NCc2cc(-c3cccnc3C3CC3)c(-c3ccc(F)cc3F)cc21 [Compound 74, 5-(2-cyclopropylpyridin-3-yl)-6-(2,4-difluorophenyl)isoindolin-1-one] | 
225 |  | Cc1c(-c2cc3c(cc2-c2ccc(F)cc2F)C(=O)NC3)cc(C#N)n1C [Compound 90, 4-(6-(2,4-difluorophenyl)-1-oxoisoindolin-5-yl)-1,5-dimethyl-1H-pyrrole-2-carbonitrile] | IC50 (human mGlu2): 185 nM
697 | > 10000 | Cc1cc(C#N)cc(-c2cc3c(cc2-c2ccc(F)cc2F)C(=O)NC3)c1 [Compound 91, 3-(6-(2,4-difluorophenyl)-1-oxoisoindolin-5-yl)-5-methylbenzonitrile] | 
477 | > 10000 | N#Cc1cccc(-c2cc3c(cc2-c2ccc(F)cc2F)C(=O)NC3)c1F [Compound 94, 3-(6-(2,4-difluorophenyl)-1-oxoisoindolin-5-yl)-2-fluorobenzonitrile] | 
585 | > 10000 | Cc1ccc(C#N)cc1-c1cc2c(cc1-c1ccc(F)cc1F)C(=O)NC2 [Compound 96, 3-(6-(2,4-difluorophenyl)-1-oxoisoindolin-5-yl)-4-methylbenzonitrile] | 
136 | 2620 | Cc1cc(-c2cc3c(cc2-c2ccc(F)cc2F)C(=O)NC3)c(C#N)n1C [Compound 98, 3-(6-(2,4-difluorophenyl)-1-oxoisoindolin-5-yl)-1,5-dimethyl-1H-pyrrole-2-carbonitrile] | 
534 | > 10000 | COc1cncc(-c2cc3c(cc2-c2ccc(F)cc2F)C(=O)NC3)c1 [Compound 101, 6-(2,4-difluorophenyl)-5-(5-methoxypyridin-3-yl)isoindolin-1-one] | 
347 | 4790 | O=C1NCc2cc(-c3ccn(C4CC4)n3)c(-c3ccc(F)cc3F)cc21 [Compound 108, 5-(1-cyclopropyl-1H-pyrazol-3-yl)-6-(2,4-difluorophenyl)isoindolin-1-one] | 
> 10000 |  | O=C1NCc2cc(CN3CC(O)(C(F)(F)F)C3)c(-c3ccc(F)cc3F)cc21 [Compound A12, 6-(2,4-difluorophenyl)-5-((3-hydroxy-3-(trifluoromethyl)azetidin-1-yl)methyl)isoindolin-1-one] | IC50 (human mGlu2): 528 nM
 |  | N[C@](CC1c2ccccc2Oc2ccccc21)(C(=O)O)[C@H]1C[C@@H]1C(=O)O [LY341495] | antidepressant-like effects in mouse tail-suspension test (mouse): Antidepressant-like effects; marble-burying behavior (mice): significantly reduce marble-burying behavior; activity in the tail suspension test (Helpless (H) mice): active; antidepressant effect in helpless mice (Helpless (H) mice): potent antidepressant effect; immobility time in the FST (C57B16/J mice): dose-dependently reduced immobility time; hypolocomotor effect of mGlu2/3 agonist (LY379268) [2]: achieved the same result; Aβ-induced neurodegeneration (mGlu2): this effect was prevented; antidepressant-like effects in rat forced swim test (rat): Antidepressant-like effects
 |  | CCS(=O)(=O)N(Cc1cccnc1)c1cccc(-c2ccc(C#N)cc2)c1 [LY566332] | Aβ-induced neurodegeneration (mGlu2): amplified Aβ-induced neurodegeneration
 |  | N[C@]1(C(=O)O)[C@H]2[C@@H](C[C@H]1OCc1ccc(Cl)c(Cl)c1)[C@]2(F)C(=O)O [MGS0039] | antidepressant-like effects in mouse tail-suspension test (mouse): Antidepressant-like effects; marble-burying behavior (mice): reduced marble-burying behavior in a significant and dose dependent manner; spontaneous locomotor activity (mice): no significant change; freezing behavior, CFS model [3]: significantly decreased freezing behavior; immobility in the FST [4]: reversed the increased immobility; hyperactivity in the open field test [5]: attenuated the hyperactivity; learning deficit in the passive avoidance test [5]: attenuated the learning deficit; number of escape failures, learned helplessness test [6]: significantly reduced the number of escape failures; antidepressant-like effects in rat forced swim test (rat): Antidepressant-like effects
 |  | Cc1cc(-c2cccc(C3=Nc4cc(C)c(C(F)(F)F)cc4NC(=O)C3)c2)cc(C)n1 [RO4491533] | activity in the tail suspension test (Helpless (H) mice): active; immobility time in the FST (C57B16/J mice): dose-dependently reduced immobility time; hypolocomotor effect of mGlu2/3 agonist (LY379268) [2]: reversed the hypolocomotor effect
 |  | CNCCC(Oc1ccc(C(F)(F)F)cc1)c1ccccc1 (stereo not drawn) [fluoxetine] | antidepressant effect in helpless mice (Helpless (H) mice): full antidepressant effect

Structure (SMILES) | IC50 (rat mGlu2) [nM] | IC50 (Rat mGlu3) [nM] | also measured
O=C1NCc2cc(-c3cnc4[nH]ccc4c3)c(-c3ccc(F)cc3F)cc21 [Compound 87, 6-(2,4-difluorophenyl)-5-(1H-pyrrolo[2,3-b]pyridin-5-yl)isoindolin-1-one] | 618 | > 10000 | 
